Here are results for 23 substances from patent US12622956B2, “Methods and vaccines for inducing immune responses to multiple different MHC molecules” (Mayo Foundation for Medical Education and Research, priority 2015, dated 2026).

Type in all cases: cell-based, human
The test system of experiment [1] is T-cells. Description: PBMC culture pulsed with long polypeptide, restimulation, intracellular cytokine (IFNγ) assay, healthy donors. Further details: key to Testing (confirmed immunogenicity in healthy donors): *: Represents polypeptides confirmed to be immunogenic in 4/4 healthy donors.; ¶: Represents polypeptides confirmed to be immunogenic in one healthy donor. The conditions noted are these: for immunogenicity (frequency of antigen-specific T-cells): FIGS. 4C and 4D, unvaccinated HLA-A2.1+ healthy volunteers; for immune response by antigen specific IFNγ production: FIGS. 4C and D, CD4+ and CD8+ T cells, four healthy donors, background subtracted. Here is the method:
The SEA polypeptides, CMV long polypeptide, and VNTR polypeptide were tested in a culture system. Briefly, bulk peripheral blood mononuclear cells (PBMC) were thawed and exposed to GM-CSF on day 0 in culture. […] On day 2, media was washed out, and the cells were split 1:6 in fresh media containing IL-7 for T-cell expansion. Further splits occurred with simple addition of more media containing IL-7 depending upon acidity of the media between days 7-15. On day 16, an antigen specific restimulation of T-cell cultures was performed utilizing fresh PBMC as the antigen presenting cells. These fresh PBMC were thawed on day 14 and treated the same way as the initial culture on days 0-1, before being used on day 16. At the time of restimulation, an intracellular cytokine assay was performed. The T-cell cultures also were allowed to proliferate for an additional […] in media containing IL-7. At the end of culture, day 28, T-cells were further tested with a new intracellular cytokine assay utilizing fresh PBMC, prepared the same way as the PBMC used on day 16 for the first intracellular cytokine assay. Representative dot-plots for IFNγ levels are shown for the CMV pp65 polypeptide and the SEA2 polypeptide, with levels being much lower when T-cells were not restimulated with the same polypeptide they saw at the initiation of culture. […] Each data point represents the level of IFNγ after subtracting the levels of IFNγ from restimulation with irrelevant polypeptides or no polypeptide from levels when T-cells were restimulated with the original polypeptide.
The synthesized long peptides were individually pulsed onto GM+R848+LPS conditioned PBMC cultures established from unvaccinated HLA-A2.1+ healthy volunteers, then expanded in rhIL-7 or rhIL-7+rhIL-2. […] Proliferation of CD4+ and CD8^+ T-cells was indistinguishable, with both subsets retaining their initial proportionality during expansion.

Experiment [2] has as its system MDA-MB-231.MUC1. Description: Cr51 release lysis by peptide-driven T-cells. The conditions noted are these: T-cells from 3 donors; FIG. 6. An excerpt: T-cells from GM+R848+LPS conditioned PBMC driven by either SEA2 or SEA1 long peptides not only specifically recognized one or both of these sensitizing peptides at restimulation, but also preferentially lysed the HLA-A2.1+ human breast cancer line MDA-MB-231 transduced to express MUC1 (MDA-MB-231.MUC1) compared to MDA-MB-231.Neo control targets. […] Polyclonally driven T-cells from all 3 donors lysed MDA-MB-231.MUC1 indistinguishably from MDA-MB-231.Neo.

Experiment [3] deals with SEA1-specific T-cells. Description: Effect of C-terminal amidation on sensitizing Ag-specific IFNγ T cells. The conditions noted are these: FIG. 9; one healthy donor; versus SEA1 without C-terminal amidation. An excerpt: Amidated polypeptides were amidated at the C-terminus as described elsewhere (see, e.g., Brinckerhoff et al., Int. J. Cancer 83 (3): 326-34 (1999)).
A cocktail of peptides such as SEA1, SEA1-amide, acetyl-SEA1 and acetyl-SEA1-amide can be used to capture a broadened SEA1 response (or similarly for any other peptide).

Ends that are not written are not given here.

For “3 (NRPALGSTAPPVHNVTSASGSASGSASTLV; immunogenic polypeptide) [compound 3]”, in experiment [1], the “Testing (confirmed immunogenicity in healthy donors)” value (“Testing” below) is “*/MUC1”.

For “5 (STSPQLSTGVSFFFLSFHISNLQFNSSLEDPSTD; immunogenic polypeptide) [compound 5]”, in experiment [1], the “Testing” value is given as “*/MUC1”. Still for that read-out and setting: then “6 (STDYYQELQRDISEMFLQIYKQGGFLGLSNIKFRPGSVV; immunogenic polypeptide) [compound 6]”, with “*/MUC1”. For the substance “7 (VHDVETQFNQYKTEAASRYNLTISDVSVSDVPFP; immunogenic polypeptide) [compound 7]”, in experiment [1], the “Testing” value is on record as “*/MUC1”. The same measure, in the same setting: then “11 (LSFLQDIQEVQGYVLIAHNQVRQVPLQRL; immunogenic polypeptide) [compound 11]”, with “¶/HER2”; and “12 (AHNQVRQVPLQRLRIVRGTQLFEDNYALA; immunogenic polypeptide) [compound 12]”, with “¶/HER2”. As for “13 (TEILKGGVLIQRNPQLCYQDTILWKDIFH; immunogenic polypeptide) [compound 13]”, in experiment [1], the “Testing” value is given as “¶/HER2”. With “14 (YQDTILWKDIFHKNNQLALTLIDTNRSRACHPC; immunogenic polypeptide) [compound 14]”, the “Testing” value in experiment [1] is given as “¶/HER2”. On the same count and under the same terms, then “16 (NIQEFAGCKKIFGSLAFLPESFDGDP; immunogenic polypeptide) [compound 16]”, with “¶/HER2”.

Regarding “17 (VFETLEEITGYLYISAWPDSLPDLSV; immunogenic polypeptide) [compound 17]”, in experiment [1], the “Testing” value is “¶/HER2”. As for “18 (DLSVFQNLQVIRGRILHNGAYSLTLQGLG; immunogenic polypeptide) [compound 18]”, the “Testing” value in experiment [1] is “¶/HER2”.

“20 (ELGSGLALIHHNTHLCFVHTVPW; immunogenic polypeptide) [compound 20]”: the “Testing” value in experiment [1] is listed as “¶/HER2”. With “24 (IKRRQQKIRKYTMRRLLQETELVEPLTPS; immunogenic polypeptide) [compound 24]”, in experiment [1], the “Testing” value is “¶/HER2”. On the same count and under the same terms, the entry for “26 (GVGSPYVSRLLGICLTSTVQLVTQLM; immunogenic polypeptide) [compound 26]” is “¶/HER2”; for “29 (DLAARNVLVKSPNHVKITDFG; immunogenic polypeptide) [compound 29]” it is “¶/HER2”; for “30 (DGGKVPIKWMALESILRRRFTHQS; immunogenic polypeptide) [compound 30]” it is “¶/HER2”.

On to “33 (SECRPRFRELVSEFSRMARDPQRFVVIQ; immunogenic polypeptide) [compound 33]”, for which the “Testing” value in experiment [1] is “¶/HER2”. On to “57 (GVGSPYVSRLLGICLTSTVQLV; immunogenic polypeptide) [compound 57]”, for which, in experiment [1], the “Testing” value was “¶/HER2”. As to “AHGVTSAPDTRPAPGSTAPPAHGV [VNTR, reference compound]”, the “immunogenicity (frequency of antigen-specific T-cells)” value in experiment [1] was “reproducibly less effective”. With SPQLSTGVSFFFLSFHISNLQFNSSLEDPSTD [SEA1], in experiment [1], the “immunogenicity (frequency of antigen-specific T-cells)” value is reported as “highly immunogenic” and the “immune response by antigen specific IFNγ production” value (“immune response” for short) is recorded as “consistently exhibited an immune response”. Also, the “lysis of MDA-MB-231.MUC1 compared to MDA-MB-231.Neo control targets” value in experiment [2] is “significantly more”.

With “SPQLSTGVSFFFLSFHISNLQFNSSLEDPSTD-amide (SPQLSTGVSFFFLSFHISNLQFNSSLEDPSTD-NH2) [SEA1-amide, SEA1 amidated at the C-terminus]”, in experiment [3], the “SEA1-specific CD8+ T-cell response” value is given as “less affected by amidation” and the “sensitizing SEA1-specific CD4+ IFNγ-producing T-cells” value is on record as “far superior”. Consider “SQEPMSIYVYALPLKMLNIPSINVHHYP [SEQ ID NO: 1]”, for which, in experiment [1], the “immunogenicity (frequency of antigen-specific T-cells)” value is “highly immunogenic” and the “immune response” value is “consistently exhibited an immune response”. Consider “STDYYQELQRDISEMFLQIYKQGGFLGLSNIKFRPGSVV [SEA2]”, for which, in experiment [1], the “immunogenicity (frequency of antigen-specific T-cells)” value is given as “highly immunogenic” and the “immune response” value is “consistently exhibited an immune response”. The “lysis of MDA-MB-231.MUC1 compared to MDA-MB-231.Neo control targets” value in experiment [2] is “significantly more”.
